Data published in US10385019B2, “Inhibitors of EGFR and methods of use thereof” (Dana-Farber Cancer Institute, Inc., priority 2015, dated 2019).

Biological target: T1, L858R mutant EGFR (Homo sapiens, UniProt P00533, L858R)
T1 construct: Constructs spanning residues 696-1022 of the human EGFR; GST (cleaved yes); made in house; host or cells: Sf9 insect cells
Test: HTRF-based EGFR biochemical assay
Conditions: relative to L858R/T790M and T790M mutants
Protocol: EGFR biochemical assays are carried out using a homogeneous time-resolved fluorescence (HTRF) assay. The reaction mixtures contain biotin-Lck-peptide substrate, wild type, or mutant EGFR enzyme in reaction buffer. Enzyme concentrations are adjusted to accommodate varying kinase activity and ATP concentrations. Compounds of the present disclosure are diluted into the assay mixture and IC50 values are determined using 12-point inhibition curves.
Constructs spanning residues 696-1022 of the human EGFR (including wild type and L858R, L858R/T790M, T790M, and T790M/V948R mutant sequences) were prepared in a GST-fusion format using the pTriEX system (Novagen) for expression in Sf9 insect cells essentially as described. […]
EGFR biochemical assays were carried out using a homogeneous time-resolved fluorescence (HTRF) assay as described previously. […] Five μL per well of the detection reagent containing 2.5 ng PT66K (Cis-bio) and 0.05 μg SAXL (Prozyme) were added, and the plates were then incubated at room temperature for 1 hour and read with an EnVision plate reader.

T1 sequence (P00533 696-1022 L858R): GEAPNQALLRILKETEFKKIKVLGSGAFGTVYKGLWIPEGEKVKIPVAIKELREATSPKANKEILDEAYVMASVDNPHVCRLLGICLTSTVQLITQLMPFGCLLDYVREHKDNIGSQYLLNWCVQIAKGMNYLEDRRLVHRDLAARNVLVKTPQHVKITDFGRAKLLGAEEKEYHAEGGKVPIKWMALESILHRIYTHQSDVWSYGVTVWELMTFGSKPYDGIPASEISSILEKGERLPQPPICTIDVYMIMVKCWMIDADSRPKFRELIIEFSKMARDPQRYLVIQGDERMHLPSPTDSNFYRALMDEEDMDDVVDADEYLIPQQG

decreased potency against L858R mutant EGFR: approximately 2 fold
SMILES: O=C(Nc1nccs1)C(c1ccccc1)N1Cc2ccccc2C1=O (stereo not shown) [Compound A1]
